Test results: patent US20210061859A1, “NTCP Inhibitor” (The University of Tokyo, priority 2018, published 2021)
≈ marks a conversion by molar mass, not a printed value. Where a SMILES comes first, the peptide text is derived from it. Bridges are numbered along the chain shown (N, C = ends). [ ]: non-standard residue; d: D form. Sar = CNCC(=O)O

What was measured:
HBV genotype D [1] = assay: HBV infection assay in HepG2-hNTCP-C4 cells (HBs and HBc antigens); type: cell-based, hepatitis B virus; details: 100 nM entecavir
Protocol: HBs antigen secreted into a culture supernatant (a) and HBc antigen in the cells (b) were detected by ELISA and an immunofluorescence method, respectively. A cell survival rate was measured by quantifying total cellular DNA (c). The staining images of (b) each show the HBc antigen and the nucleus. […] HBs antigen secreted into a culture supernatant was detected by ELISA. Data is indicated by mean±SD. Statistical significance was determined by use of Student's t test as to all numbers (*P<0.05, **P<0.01, N.S.: not significant). […]
HBs antigen was quantified by enzyme-linked immunosorbent assay (ELISA) as described in a known method (the method described in Watashi, K. et al. Interleukin-1 and tumor necrosis factor-alpha trigger restriction of hepatitis B virus infection via a cytidine deaminase activation-induced cytidine deaminase (AID). The Journal of biological chemistry 288, 31715-31727 (2013)). […]
After HBV inoculation, HBs antigen was measured in a culture supernatant, and HBc antigen was evaluated in the cells to confirm HBV infection, as shown in FIG. 2(a).

human NTCP = biological target: T1, human NTCP (Homo sapiens, UniProt Q14973); assay: Surface plasmon resonance binding to immobilized recombinant NTCP; details: single-cycle kinetics, 1:1 binding model, NTCP immobilized on NTA-Ni2+, read-out: Kd
T1 construct: made in house; host or cells: wheat germ cell-free protein synthesis system
T1 sequence (Q14973 1-349): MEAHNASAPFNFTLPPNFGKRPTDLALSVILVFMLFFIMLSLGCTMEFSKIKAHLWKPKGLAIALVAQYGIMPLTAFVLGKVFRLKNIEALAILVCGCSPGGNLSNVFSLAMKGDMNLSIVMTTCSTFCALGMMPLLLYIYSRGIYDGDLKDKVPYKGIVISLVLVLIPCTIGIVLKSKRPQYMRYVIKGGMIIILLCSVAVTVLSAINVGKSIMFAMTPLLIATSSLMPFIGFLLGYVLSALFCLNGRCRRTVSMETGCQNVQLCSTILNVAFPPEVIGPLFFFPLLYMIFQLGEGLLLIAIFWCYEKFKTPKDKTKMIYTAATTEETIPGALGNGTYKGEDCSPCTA

HepG2-hNTCP-C4 cells = details: HBV infection assay
Protocol: HBs antigen secreted into a culture supernatant (a) and HBc antigen in the cells (b) were detected by ELISA and an immunofluorescence method, respectively. A cell survival rate was measured by quantifying total cellular DNA (c). […] Data is indicated by mean±SD. Statistical significance was determined by use of Student's t test as to all numbers (*P<0.05, **P<0.01, N.S.: not significant).

HBV genotype D [2] = type: cell-based, hepatitis B virus; details: primary human hepatocytes, purified HBV as inoculum, HBs antigen in culture supernatant; read-out: 50% inhibitory concentrations (IC50), HBs antigen
Protocol: FIG. 2 is a diagram showing the anti-HBV effect of a peptide from initial screening. FIG. 2(a) is a schematic diagram of a HepG2-hNTCP-C4 infection experiment. HepG2-hNTCP-C4 cells were pretreated with a peptide for 2 hours and subsequently inoculated with HBV for 16 hours in the presence of the peptide. Free HBV and peptide were washed off. Then, the cells were further cultured for 12 days in the absence of the peptide, and HBV infection was evaluated on the basis of measurement of HBs antigen in the culture supernatant. The filled boxes and the broken-line boxes depict periods for which the treatment was performed and periods for which the treatment was not performed, respectively. […] HBV infection was evaluated by monitoring HBs antigen secreted into a culture supernatant on 12 days after inoculation by ELISA. In FIG. 2(c), a cell survival rate was measured by MTT assay.
FIG. 3 is a diagram showing the anti-HBV effect of a peptide by focused library screening. […] HBV infection was evaluated by measurement of HBe antigen (a), and a cell survival rate (b) was evaluated by MTT assay as shown in FIG. 2.
HBV genotype D used in this study (FIGS. 1 to 3) was derived from the culture supernatant of Hep38.7-Tet cells, and prepared by a known method (the method described in Tsukuda, S. et al. Dysregulation of retinoic acid receptor diminishes hepatocyte permissiveness to hepatitis B virus infection through modulation of sodium taurocholate cotransporting polypeptide (NTCP) expression. The Journal of biological chemistry 290, 5673-5684 (2015), and Ogura, N., Watashi, K., Noguchi, T. & Wakita, T. Formation of covalently closed circular DNA in Hep38.7-Tet cells, a tetracycline inducible hepatitis B virus expression cell line. Biochemical and biophysical research communications 452, 315-321 (2014)). Purified HBV (FIG. 1(d)) was prepared by ultrafiltration to remove an excess of components in FBS and medium. HBV genotypes A, B, and C and genotype C having the L180M/S202G/M204V mutations (nucleoside analog-resistant HBV) or G145R substitution (vaccine-escape HBV) (FIG. 4(d)) were prepared from the culture supernatant of HepG2 cells transfected with the corresponding expression plasmid. HBV was inoculated at 12,000 (FIGS. 1(a), 1(b), and 1(d)), 1000 to 2000 (FIG. 2(b)) or 500 (FIGS. 3(a) and 4(d)) genome equivalents (GEq)/cell in the presence of 4% polyethylene glycol 8000 (PEG8000) and incubated at 37° C. for 16 hours by a known method (the method described in Watashi, K. et al. Interleukin-1 and tumor necrosis factor-alpha trigger restriction of hepatitis B virus infection via a cytidine deaminase activation-induced cytidine deaminase (AID). The Journal of biological chemistry 288, 31715-31727 (2013)).
HBe antigen was detected by a chemiluminescence immunoassay (CLIA) (LSI Medience Corp.). HBs antigen was quantified by enzyme-linked immunosorbent assay (ELISA) as described in a known method (the method described in Watashi, K. et al. Interleukin-1 and tumor necrosis factor-alpha trigger restriction of hepatitis B virus infection via a cytidine deaminase activation-induced cytidine deaminase (AID). The Journal of biological chemistry 288, 31715-31727 (2013)).
Subsequently, the present inventors evaluated the effect of the 10 peptides described above on HBV infection in primary human hepatocytes. […] HBV infection was evaluated by measuring HBs antigen in the culture supernatant. […]

[3] = biological target: human NTCP on cells (HepG2-hNTCP-C4 cells overexpressing the human NTCP gene; primary human hepatocytes) (human) (UniProt Q14973); assay: cell-based or functional assay

Molecule: C=C1[C@H](CO)[C@@H](O)C[C@@H]1n1cnc2c(=O)[nH]c(N)nc21 [entecavir]
- HBV infection monitored by HBc antigen (HBV genotype D [1]): did not exhibit a significant reduction
- HBV infection monitored by HBs antigen (HBV genotype D [1]): did not exhibit a significant reduction

Molecule: CC[C@H](C)[C@@H]1NC(=O)[C@H](Cc2c[nH]c3ccccc23)NC(=O)[C@H]([C@@H](C)CC)NC(=O)[C@H](C(C)C)NC(=O)[C@H](Cc2ccc(O)cc2)NC(=O)CSC[C@@H](C(=O)N[C@H](C(N)=O)[C@@H](C)O)NC(=O)[C@H](Cc2ccc(O)cc2)NC(=O)[C@H](Cc2ccc(O)cc2)NC(=O)[C@H](Cc2ccccc2)NC(=O)[C@H](Cc2c[nH]cn2)NC(=O)[C@H](CC(N)=O)NC(=O)[C@@H]2CCCN2C(=O)[C@H](Cc2c[nH]c3ccccc23)NC1=O [WL4] ({CH2CO}-YVIWIWPNHFYYCT-NH2; thioether N-13)
- Kd (human NTCP): 0.042 µM
- cytotoxicity (cell survival rate, total cellular DNA) (HepG2-hNTCP-C4 cells): without marked cytotoxicity
- solubility: ~30 µM (≈ 58.3 µg/mL)
- IC50 (HBV genotype D [2]): 0.66 ± 0.03 µM

Molecule: CC[C@H](C)[C@@H]1NC(=O)[C@H](Cc2ccccc2)NC(=O)[C@@H](Cc2ccc(O)cc2)NC(=O)CSC[C@@H](C(=O)N[C@H](C(N)=O)[C@@H](C)O)NC(=O)[C@H](CO)NC(=O)[C@H](Cc2c[nH]c3ccccc23)NC(=O)[C@H]([C@@H](C)O)NC(=O)[C@H](Cc2c[nH]c3ccccc23)NC(=O)[C@H]([C@@H](C)O)NC(=O)[C@H](Cc2c[nH]c3ccccc23)NC(=O)[C@H]([C@@H](C)O)NC(=O)CN(C)C(=O)[C@H](C(C)C)NC(=O)[C@H]([C@@H](C)CC)NC1=O [WD1] ({CH2CO}-[dY]FIIV[Sar]TWTWTWSCT-NH2; thioether N-14)
- Kd (human NTCP): 0.015 µM
- cytotoxicity (cell survival rate, total cellular DNA) (HepG2-hNTCP-C4 cells): without marked cytotoxicity
- solubility: ~30 µM (≈ 57.5 µg/mL)
- IC50 (HBV genotype D [2]): 0.85 ± 0.01 µM

Molecule: CC[C@H](C)[C@@H]1NC(=O)[C@H](Cc2ccc(O)cc2)NC(=O)CSC[C@@H](C(=O)N[C@H](C(N)=O)[C@@H](C)O)NC(=O)[C@H](Cc2ccc(O)cc2)NC(=O)[C@H]([C@@H](C)CC)NC(=O)[C@H](C(C)C)NC(=O)[C@H](Cc2ccc(O)cc2)NC(=O)CNC(=O)[C@@H]2CCCN2C(=O)[C@H](Cc2c[nH]c3ccccc23)NC(=O)[C@H]([C@@H](C)CC)NC(=O)[C@H](Cc2c[nH]c3ccccc23)NC1=O [WL2] ({CH2CO}-YIWIWPGYVIYCT-NH2; thioether N-12)
- Kd (human NTCP): 0.157 µM
- cytotoxicity (cell survival rate, total cellular DNA) (HepG2-hNTCP-C4 cells): without marked cytotoxicity
- solubility: ~30 µM (≈ 51.5 µg/mL)
- IC50 (HBV genotype D [2]): 2.54 ± 0.11 µM

Molecule: cyclosporin A (peptide)
- 50% inhibitory concentration (IC50), HBs antigen in culture supernatant, HBV infection assay [3]: 3.17 µM
